Source: PubChem BioAssay (NCI)
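1) Cells in 96-well plates. 2) Compound, 48 h, 5 concentrations. 3) Linear interpolation between surrounding doses. 4) Unreached endpoint = highest concentration. At the TGI there is no net growth.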

Legend:
Assay in all cases: inhibition of tumour cell growth, NCI panel, 48 h
ACHN renal = test system: ACHN renal
NCI-H460 lung = test system: NCI-H460 lung
MOLT-4 leukemia = test system: MOLT-4 leukemia
UO-31 renal = test system: UO-31 renal
A549 NSCLC = test system: A549 NSCLC
CCRF-CEM leukemia = test system: CCRF-CEM leukemia
COLO 205 colon = test system: COLO 205 colon
SF-295 CNS = test system: SF-295 CNS
KM20L2 colon = test system: KM20L2 colon
SK-MEL-28 melanoma = test system: SK-MEL-28 melanoma
SN12C renal = test system: SN12C renal
NCI-H226 lung = test system: NCI-H226 lung
SF-268 CNS = test system: SF-268 CNS
DMS 114 small cell lung = test system: DMS 114 small cell lung
SF-539 CNS = test system: SF-539 CNS
RPMI-8226 leukemia = test system: RPMI-8226 leukemia
SNB-78 CNS = test system: SNB-78 CNS
OVCAR-8 ovarian = test system: OVCAR-8 ovarian
SNB-19 CNS = test system: SNB-19 CNS
HCT-116 colon = test system: HCT-116 colon
OVCAR-3 ovarian = test system: OVCAR-3 ovarian
SNB-75 CNS = test system: SNB-75 CNS
HOP-92 NSCLC = test system: HOP-92 NSCLC
XF 498 CNS = test system: XF 498 CNS
IGROV1 ovarian = test system: IGROV1 ovarian
786-0 renal = test system: 786-0 renal
EKVX NSCLC = test system: EKVX NSCLC
DMS 273 small cell lung = test system: DMS 273 small cell lung
M19-MEL melanoma = test system: M19-MEL melanoma
DLD-1 colon = test system: DLD-1 colon
HOP-62 NSCLC = test system: HOP-62 NSCLC
SK-MEL-2 melanoma = test system: SK-MEL-2 melanoma
UACC-62 melanoma = test system: UACC-62 melanoma
K-562 leukemia = test system: K-562 leukemia
M14 melanoma = test system: M14 melanoma
HCT-15 colon = test system: HCT-15 colon
OVCAR-4 ovarian = test system: OVCAR-4 ovarian
OVCAR-5 ovarian = test system: OVCAR-5 ovarian
TK-10 renal = test system: TK-10 renal
NCI-H522 lung = test system: NCI-H522 lung
RXF 393 renal = test system: RXF 393 renal
U251 CNS = test system: U251 CNS
A498 renal = test system: A498 renal
SW-620 colon = test system: SW-620 colon
SK-OV-3 ovarian = test system: SK-OV-3 ovarian
MALME-3M melanoma = test system: MALME-3M melanoma
RXF-631 renal = test system: RXF-631 renal
LXFL 529 NSCLC = test system: LXFL 529 NSCLC
LOX IMVI melanoma = test system: LOX IMVI melanoma
HOP-18 NSCLC = test system: HOP-18 NSCLC
NCI-H23 lung = test system: NCI-H23 lung
UACC-257 melanoma = test system: UACC-257 melanoma
SK-MEL-5 melanoma = test system: SK-MEL-5 melanoma
HCC-2998 colon = test system: HCC-2998 colon
HT29 colon = test system: HT29 colon
CAKI-1 renal = test system: CAKI-1 renal

Measured: TGI

Cn1ncc(=S)[nH]c1=S
> 100 µM: ACHN renal | NCI-H460 lung | MOLT-4 leukemia | UO-31 renal | A549 NSCLC | CCRF-CEM leukemia | COLO 205 colon | SF-295 CNS | KM20L2 colon | SK-MEL-28 melanoma | SN12C renal | NCI-H226 lung | SF-268 CNS | DMS 114 small cell lung | SF-539 CNS | RPMI-8226 leukemia | SNB-78 CNS | OVCAR-8 ovarian | SNB-19 CNS | HCT-116 colon | OVCAR-3 ovarian | SNB-75 CNS | HOP-92 NSCLC | XF 498 CNS | IGROV1 ovarian | 786-0 renal | EKVX NSCLC | DMS 273 small cell lung | M19-MEL melanoma | DLD-1 colon | HOP-62 NSCLC | SK-MEL-2 melanoma | UACC-62 melanoma | K-562 leukemia | M14 melanoma | HCT-15 colon | OVCAR-4 ovarian | OVCAR-5 ovarian | TK-10 renal | NCI-H522 lung | RXF 393 renal | U251 CNS | A498 renal | SW-620 colon | SK-OV-3 ovarian | MALME-3M melanoma | RXF-631 renal | LXFL 529 NSCLC | LOX IMVI melanoma | HOP-18 NSCLC | NCI-H23 lung

CC(=O)Nc1ccc(/C=C(\NC(=O)c2ccccc2)c2nc3ccc4c(c3[nH]2)C(=O)c2ccccc2C4=O)cc1
49.3 µM: MOLT-4 leukemia
> 100 µM: UACC-257 melanoma | CCRF-CEM leukemia | COLO 205 colon | SK-MEL-5 melanoma | SF-295 CNS | KM20L2 colon | SK-MEL-28 melanoma | SN12C renal | NCI-H226 lung | SF-268 CNS | DMS 114 small cell lung | SF-539 CNS | RPMI-8226 leukemia | SNB-78 CNS | OVCAR-8 ovarian | HCC-2998 colon | SNB-19 CNS | HCT-116 colon | OVCAR-3 ovarian | HOP-92 NSCLC | XF 498 CNS | IGROV1 ovarian | 786-0 renal | EKVX NSCLC | DMS 273 small cell lung | M19-MEL melanoma | DLD-1 colon | HOP-62 NSCLC | SK-MEL-2 melanoma | UACC-62 melanoma | HT29 colon | K-562 leukemia | M14 melanoma | HCT-15 colon | OVCAR-4 ovarian | OVCAR-5 ovarian | TK-10 renal | NCI-H522 lung | CAKI-1 renal | U251 CNS | A498 renal | SW-620 colon | SK-OV-3 ovarian | MALME-3M melanoma | LXFL 529 NSCLC | LOX IMVI melanoma | HOP-18 NSCLC | NCI-H23 lung
96.3 µM: A549 NSCLC
9.17 µM: UO-31 renal
49.1 µM: RXF 393 renal
61.5 µM: SNB-75 CNS
